In test [1] the target is MMP-3 (Homo sapiens, UniProt P08254). Briefly: MMP-3 single dose selectivity assay. The conditions noted are these: read-out: Remaining enzymatic activity MMP-3.
Test [2] deals with MMP-13 (Homo sapiens, UniProt P45452). Briefly: MMP-13 FRET peptide enzyme assay (single dose 10 μM and IC50). In kind it is biochemical. The conditions noted are these: measured in duplicate.
Description: (§1) The buffer consisted of 50 mM HEPES at pH 7.5 with 10 mM CaCl2 and 0.01% Brij-35. 0.1 mg/mL BSA (Sigma Aldrich, St. Louis, MO, USA) was added before use. As a control inhibitor GM6001 (ilomastat, Enzo Life Sciences, Farmingdale, NY, USA) was used. For selectivity examinations single dose duplicate assays were performed in the same manner as described above on the MMP-1, -2, -3, -8, -9, -12 and -14 isoforms.
For test [3], the target named is MMP-8 (Homo sapiens, UniProt P22894). Briefly: MMP-8 single dose selectivity assay. Particulars: read-out: Remaining enzymatic activity MMP-8.
MMP-8, sequence (P22894 101-467): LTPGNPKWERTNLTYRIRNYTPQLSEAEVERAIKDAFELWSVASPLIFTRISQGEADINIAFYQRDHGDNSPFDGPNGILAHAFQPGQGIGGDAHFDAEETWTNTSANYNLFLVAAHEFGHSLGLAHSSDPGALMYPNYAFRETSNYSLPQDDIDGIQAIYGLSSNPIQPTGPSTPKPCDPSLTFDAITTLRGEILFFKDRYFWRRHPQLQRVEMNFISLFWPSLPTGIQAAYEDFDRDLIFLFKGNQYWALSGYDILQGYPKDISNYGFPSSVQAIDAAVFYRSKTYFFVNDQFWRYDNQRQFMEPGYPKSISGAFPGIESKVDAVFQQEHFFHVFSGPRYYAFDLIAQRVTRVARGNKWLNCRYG
Description: (§2) The buffer consisted of 50 mM HEPES at pH 7.5 with 10 mM CaCl2 and 0.01% Brij-35. 0.1 mg/mL BSA (Sigma Aldrich, St. Louis, MO, USA) was added before use. As a control inhibitor GM6001 (ilomastat, Enzo Life Sciences, Farmingdale, NY, USA) was used.
Test [4] has as its target T1, MMP-7 (Homo sapiens, UniProt P09237).
T1 sequence (P09237 95-267): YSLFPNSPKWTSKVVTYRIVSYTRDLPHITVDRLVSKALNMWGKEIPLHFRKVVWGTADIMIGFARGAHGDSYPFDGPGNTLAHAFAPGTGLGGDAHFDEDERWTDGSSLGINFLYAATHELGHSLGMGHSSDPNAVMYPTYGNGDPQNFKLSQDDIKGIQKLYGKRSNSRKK
Briefly: MMP-7 FRET peptide enzyme assay (single dose 10 μM and IC50). Particulars: IC50 MMP-7, measured in duplicate.
Description: as §1

The target of test [5] is T2, MMP-1 (Homo sapiens, UniProt P03956).
T2 sequence (P03956 100-469): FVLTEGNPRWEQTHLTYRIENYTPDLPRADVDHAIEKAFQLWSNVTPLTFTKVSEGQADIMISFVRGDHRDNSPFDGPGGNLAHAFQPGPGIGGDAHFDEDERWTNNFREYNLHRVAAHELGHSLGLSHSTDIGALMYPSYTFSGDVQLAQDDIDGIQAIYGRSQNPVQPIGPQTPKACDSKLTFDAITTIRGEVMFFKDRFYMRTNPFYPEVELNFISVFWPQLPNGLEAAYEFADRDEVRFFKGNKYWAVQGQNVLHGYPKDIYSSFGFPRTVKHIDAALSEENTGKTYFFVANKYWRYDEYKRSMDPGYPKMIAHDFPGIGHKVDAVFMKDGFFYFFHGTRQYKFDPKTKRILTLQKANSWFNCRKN
Briefly: MMP-1 single dose selectivity assay. The conditions noted are these: read-out: Remaining enzymatic activity MMP-1.

The target in test [6] is MMP-12 (Homo sapiens, UniProt P39900). Briefly: MMP-12 single dose selectivity assay. The conditions noted are these: read-out: Remaining enzymatic activity MMP-12.
MMP-12, sequence (P39900 106-470): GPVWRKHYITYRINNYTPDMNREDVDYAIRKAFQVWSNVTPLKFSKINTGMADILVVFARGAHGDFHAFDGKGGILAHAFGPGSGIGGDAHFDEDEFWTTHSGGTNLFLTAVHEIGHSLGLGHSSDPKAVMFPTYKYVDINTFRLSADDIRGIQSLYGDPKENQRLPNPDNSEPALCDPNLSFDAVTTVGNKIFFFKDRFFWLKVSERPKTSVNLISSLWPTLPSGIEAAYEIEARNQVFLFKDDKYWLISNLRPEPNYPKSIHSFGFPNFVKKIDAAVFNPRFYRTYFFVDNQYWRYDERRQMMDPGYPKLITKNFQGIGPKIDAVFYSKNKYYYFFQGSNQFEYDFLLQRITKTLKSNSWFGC
Description: as §2
Test [7] deals with MMP-9 (Homo sapiens, UniProt P14780). Briefly: MMP-9 single dose selectivity assay. Particulars: read-out: Remaining enzymatic activity MMP-9.
MMP-9, sequence (P14780 94-707): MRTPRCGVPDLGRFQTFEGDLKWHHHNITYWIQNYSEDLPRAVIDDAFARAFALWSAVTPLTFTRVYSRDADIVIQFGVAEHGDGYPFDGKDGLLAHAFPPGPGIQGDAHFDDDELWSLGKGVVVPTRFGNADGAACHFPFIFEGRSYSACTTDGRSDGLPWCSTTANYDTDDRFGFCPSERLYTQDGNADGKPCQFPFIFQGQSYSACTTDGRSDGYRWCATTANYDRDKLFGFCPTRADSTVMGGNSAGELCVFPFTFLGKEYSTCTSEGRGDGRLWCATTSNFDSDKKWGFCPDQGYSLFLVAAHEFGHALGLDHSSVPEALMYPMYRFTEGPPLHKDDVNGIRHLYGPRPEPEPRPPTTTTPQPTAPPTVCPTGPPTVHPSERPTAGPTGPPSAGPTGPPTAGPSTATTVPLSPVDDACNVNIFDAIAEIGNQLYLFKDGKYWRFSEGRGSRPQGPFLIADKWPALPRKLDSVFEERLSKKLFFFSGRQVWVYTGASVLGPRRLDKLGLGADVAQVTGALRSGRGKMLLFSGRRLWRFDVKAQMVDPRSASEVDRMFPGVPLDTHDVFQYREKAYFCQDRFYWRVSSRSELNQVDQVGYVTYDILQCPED
Description: as §2
Test [8] addresses T3, MMP-2 (Homo sapiens, UniProt P08253).
T3 sequence (P08253 110-660): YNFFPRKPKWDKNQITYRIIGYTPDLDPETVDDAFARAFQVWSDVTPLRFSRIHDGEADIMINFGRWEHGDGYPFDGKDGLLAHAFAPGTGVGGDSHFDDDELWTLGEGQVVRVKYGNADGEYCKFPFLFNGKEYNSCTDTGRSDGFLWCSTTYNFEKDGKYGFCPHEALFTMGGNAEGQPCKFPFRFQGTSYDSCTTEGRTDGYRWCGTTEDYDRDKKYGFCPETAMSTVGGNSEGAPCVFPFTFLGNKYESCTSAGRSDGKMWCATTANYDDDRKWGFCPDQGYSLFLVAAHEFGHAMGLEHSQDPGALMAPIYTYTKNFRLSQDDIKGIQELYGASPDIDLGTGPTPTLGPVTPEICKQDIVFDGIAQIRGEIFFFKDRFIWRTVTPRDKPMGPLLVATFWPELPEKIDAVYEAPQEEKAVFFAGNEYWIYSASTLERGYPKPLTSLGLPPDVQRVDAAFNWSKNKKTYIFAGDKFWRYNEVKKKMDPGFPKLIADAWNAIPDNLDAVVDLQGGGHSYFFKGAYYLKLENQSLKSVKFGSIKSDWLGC
Briefly: MMP-2 single dose selectivity assay. Particulars: read-out: Remaining enzymatic activity MMP-2.

Test [9] has as its target MMP-14 (Homo sapiens, UniProt P50281). Briefly: MMP-14 single dose selectivity assay. The conditions noted are these: read-out: Remaining enzymatic activity MMP-14.
Description: as §2

Several values for one entry are separate records, joined by “and”; a condition that tells them apart may be missing. Identical values can stand only once.

MMP-3, sequence (P08254 100-477): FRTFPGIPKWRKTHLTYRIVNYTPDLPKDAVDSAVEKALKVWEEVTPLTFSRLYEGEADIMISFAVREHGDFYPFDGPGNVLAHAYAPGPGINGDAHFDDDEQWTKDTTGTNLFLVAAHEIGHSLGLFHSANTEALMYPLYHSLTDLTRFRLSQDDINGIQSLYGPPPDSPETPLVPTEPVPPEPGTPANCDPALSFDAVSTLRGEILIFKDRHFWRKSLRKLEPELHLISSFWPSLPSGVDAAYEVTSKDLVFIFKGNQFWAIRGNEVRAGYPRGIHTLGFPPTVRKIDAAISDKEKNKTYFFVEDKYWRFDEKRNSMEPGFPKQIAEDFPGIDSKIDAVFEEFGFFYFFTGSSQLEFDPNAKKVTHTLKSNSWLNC

Consider `O=C(O)CCCCCCCCOc1ccc(CC(=O)Nc2ccc3c(c2)C(=O)N(Cc2ccccc2)C3=O)cc1` [Compound 14i, 9-(4-{[(2-Benzyl-1,3-dioxo-2,3-dihydro-1H-isoindol-5-yl)carbamoyl]methyl}phenoxy)nonanoic acid], for which the remaining activity (commonly the share of the control activity or signal that is left under treatment) at 10 µM in test [1] is 73%; in test [3], 80%; in test [5], 100%; in test [6] it was 97%; in test [7], 87%; in test [8] it was 98%. Further, in test [9], the remaining activity at 10 µM was 91%. Also, the half-maximal inhibitory concentration (IC50) (in general, the concentration at which inhibition is half-maximal) in test [2] was 1.2 µM and 1.25 µM; in [4] it was 2.2 µM and 2.25 µM.

Source of the values: paper PMC6151531, “Development of a Non-Hydroxamate Dual Matrix Metalloproteinase (MMP)-7/-13 Inhibitor” (Molecules : A Journal of Synthetic Chemistry and Natural …, 2017).
